# Test results as given in patent US20070190520A1, “METHOD OF CHARACTERIZING A BIOLOGICALLY ACTIVE COMPOUND” (priority 2006, published 2007).
# Tested on: Adult stem cells from peripheral blood (CD34+/CD38−)
# Test: viability and cell number of peripheral blood stem cells expanded in a rotatable TVEMF bioreactor (Example 4)
# Format: cell-based
# Conditions: 20 ppm added at initiation, end of 14 days, Sample 2 cells from an individual with known liver damage
# Description: The rotatable bioreactor may preferably be filled with culture medium consisting of Isocove's modified Dulbecco's medium (IMDM) (GIBCO, Grand Island N.Y.), supplemented with 5% human albumin, 100 ng/ml recombinant human G-CSF (Amgen Inc., Thousand Oaks, Calif.), and 100 ng/ml recombinant human stem cell factor (SCF) (Amgen). In addition, D-Penicillamine [D(−)-2-Amino-3-mercapto-3-methylbutonoic acid] (Sigma-Aldrich) a copper chelating agent, dissolved in DMSO, may preferably be introduced to the culture medium in the rotatable bioreactor in an amount of 10 ppm. Adult stem cells from peripheral blood (CD34+/CD38−) may preferably be placed in the culture chamber of the rotatable bioreactor at a concentration of 0.75×10^6 cells/ml.
# Two samples of peripheral blood stem cells should preferably be prepared by this method. Sample 1 should preferably be from an individual with no known liver damage. Sample 2 should preferably be from an individual with known liver damage. The samples should be prepared as above and placed in two different rotatable bioreactors under the conditions noted in Example 1 and at the same concentrations.
compound,measurement,value
CC(=O)Nc1ccc(O)cc1 [acetaminophen],viability and number of cells counted,"neither die nor grow, but rather, remain unchanged"
